# Where a name gives a salt, the structure may show the parent alone. Read-outs that look alike come from different tables or passages of the source.
# Legend:
# rat CYP51 = molecular target: T1, rat CYP51 (Rattus norvegicus, UniProt Q64654); assay: CYP51 enzymatic assay (LC/MS quantitation of FF-MAS); assay type: biochemical
# T1 construct: purchased Cypex, Inc
# T1 sequence (Q64654 1-503): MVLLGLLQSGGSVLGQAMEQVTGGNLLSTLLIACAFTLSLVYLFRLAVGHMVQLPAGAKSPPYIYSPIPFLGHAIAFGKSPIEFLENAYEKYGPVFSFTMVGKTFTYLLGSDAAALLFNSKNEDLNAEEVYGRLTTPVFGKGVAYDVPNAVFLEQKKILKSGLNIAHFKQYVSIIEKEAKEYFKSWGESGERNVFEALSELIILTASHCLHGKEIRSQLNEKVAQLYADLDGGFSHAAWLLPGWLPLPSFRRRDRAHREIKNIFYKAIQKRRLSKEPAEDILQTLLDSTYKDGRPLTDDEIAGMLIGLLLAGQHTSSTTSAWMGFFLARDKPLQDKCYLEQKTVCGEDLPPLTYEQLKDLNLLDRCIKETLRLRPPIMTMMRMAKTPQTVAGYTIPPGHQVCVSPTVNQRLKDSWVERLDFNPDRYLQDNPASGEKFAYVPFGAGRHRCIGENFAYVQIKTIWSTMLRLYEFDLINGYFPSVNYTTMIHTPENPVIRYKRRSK
# Description: Finally, 15 μl of each reaction/isopropanol mixture was injected onto a SCIEX Triple Quad 6500 LC-MS/MS system using an APCI ion source in positive ion mode with a Shimadzu UFLC-20AD HPLC and a Phenomenex
# EpiSC-derived OPCs [1] = assay: In vitro phenotypic screening of OPCs (MBP+ oligodendrocytes at 72 h); assay type: cell-based, mouse; conditions: 72 h
# EpiSC-derived OPCs [2] = assay: High-throughput screening of 3,000 bioactive small molecules for MBP+ oligodendrocyte formation from OPCs; assay type: cell-based, mouse; conditions: 72 h; for % 0ligos: MBP+ oligodendrocytes; for fold induction at 2 µM: Mus musculus, read-out: fold-change in % MBP + oligodendrocytes
# Excerpt: Plates were imaged on the Operetta High Content Imaging and Analysis system (PerkinElmer) and a set of 6 fields captured from each well resulting in an average of 1200 cells being scored per well. Analysis (PerkinElmer Harmony and Columbus software) began by identifying intact nuclei stained by DAPI; that is, those traced nuclei that were larger than 300 μm^2 in surface area. Each traced nucleus region was then expanded by 50% and cross-referenced with the […] (MBP) stain to identify oligodendrocyte nuclei, and from this the percentage of oligodendrocytes was calculated. In some experiments, the total process length of MBP+ oligodendrocytes was calculated as previously described.
# EpiSC-derived OPCs were grown and expanded in poly-ornithine and laminin-coated flasks before harvesting for plating. Cells were dispensed in differentiation media supplemented with Noggin (R&D Systems; 100 ng/ml), Neurotrophin 3 (R&D Systems; 10 ng/ml), cAMP (Sigma; 50 μM), and IGF-1 (R&D Systems; 100 ng/ml)) using a Biotek EL406 Microplate Washer Dispenser (Biotek) equipped with 5 μL dispense cassette (Biotek), into poly-D-lysine/laminin (Sigma, L2020; 4 μg/ml)-coated sterile, 384-well, CellCarrier ultra plates (PerkinElmer), to a final density of 12,500 cells per well and allowed to attach for 45 min before addition of drug. A 3 mM stock of bioactive compound library in dimethylsulphoxide (DMSO) were prepared in an Abgene storage 384-well plate (ThermoFisher Scientific; AB1055). These were added to assay plates using a 50 nL solid pin tool attached to Janus automated workstation (Perkin Elmer), resulting in a final screening concentration of 2 μM. Cells were incubated at 37° C. for 1 hour and then T3 (Sigma; 40 ng/ml) was added to all wells except negative controls, to which FGF (20 ng/ml) was added instead. Negative controls and T3-alone were included in each assay plate. After incubation at 37° C. for 72 h, cells were fixed, washed and stained similar to 96-well OPC assay protocol, although all the washing steps were performed using a Biotek EL406 Microplate Washer Dispenser (Biotek) equipped with a 96-well aspiration manifold. Cells were stained with DAPI (Sigma; 1 μg/ml) and MBP antibody (Abcam, ab7349; 1:100). Plates were imaged on the Operetta High Content Imaging and Analysis system (PerkinElmer) and a set of 4 fields captured from each well resulting in an average of 700 cells being scored per well. Analysis was performed as in High-Content Imaging and Analysis, above. All plates for the primary screen were processed and analyzed simultaneously to minimize variability. Molecules causing more than 20% reduction in nuclear count relative to DMSO control wells were removed from consideration, and hits were called on the basis of largest fold-increase in percentage of MBP+ oligodendrocytes relative to DMSO controls within the same plate.
# OPCs = assay: GC/MS-based sterol profiling in OPCs; assay type: cell-based, mouse; conditions: for sterol levels / sterol intermediate accumulation in OPCs: 24 h treatment (siRNA 96 h)
# [3] = 2 μM, relative to DMSO controls of the same plate
# [4] = 2 μM, hydrochloride monohydrate
Compound,cell viability (% relative to DMS0) (EpiSC-derived OPCs [2]; 2 μM),% 0ligos (EpiSC-derived OPCs [2]; 2 μM),fold induction at 2 µM (EpiSC-derived OPCs [2]; [3]),further results
CC(=O)N1CCN(c2ccc(OC[C@@H]3CO[C@](Cn4ccnc4)(c4ccc(Cl)cc4Cl)O3)cc2)CC1 (stereo in doubt) [R-trans-Ketoconazole],–,–,–,inhibition of mammalian CYP51 in vitro (rat CYP51): strikingly less effective at inhibiting mammalian CYP51
CC(=O)N1CCN(c2ccc(OC[C@H]3CO[C@@](Cn4ccnc4)(c4ccc(Cl)cc4Cl)O3)cc2)CC1 (stereo in doubt) [S-trans-Ketoconazole],–,–,–,inhibition of mammalian CYP51 in vitro (rat CYP51): strikingly less effective at inhibiting mammalian CYP51
"CC(C)CCC[C@@H](C)[C@H]1CC=C2C3=C(CC[C@@]21C)[C@@]1(C)CCC(O)CC1CC3 (stereo partly drawn) [14-dehydrozymostenol, cholesta-8,14-dien-3-ol]",–,–,–,formation of MBP+ oligodendrocytes from OPCs (EpiSC-derived OPCs [1]): enhanced the formation of MBP+ oligodendrocytes
c1ccc(-c2ccc(C(c3ccccc3)n3ccnc3)cc2)cc1 (stereo not drawn) [Bifonazole],123.69%,40.98%,4.59,–
Clc1ccc(CCC(Cn2ccnc2)Sc2c(Cl)cccc2Cl)cc1 (stereo not drawn) [Butoconazole nitrate],122.03%,46.85%,5.25,–
CN1CCC[C@@H]1CCO[C@](C)(c1ccccc1)c1ccc(Cl)cc1 [Clemastine fumarate],–,20.49%,–,oligodendrocyte formation in combination with ketoconazole (EpiSC-derived OPCs [1]; ketoconazole 2.5 μM (maximally effective dose)): did not enhance differentiation above levels seen for ketoconazole alone; sterol levels / sterol intermediate accumulation in OPCs (OPCs): induced accumulation of zymostenol and zymosterol and decreased basal sterol levels
Clc1ccc(C(Cn2ccnc2)OCc2ccc(Sc3ccccc3)cc2)c(Cl)c1 (stereo not drawn) [Fenticonazole Nitrate],103.63%,35.66%,4,–
C[C@]12CC[C@@H]3c4ccc(O)cc4C[C@@H](CCCCCCCCC[S+]([O-])CCCC(F)(F)C(F)(F)F)[C@H]3[C@@H]1CC[C@@H]2O (stereo partly drawn) [Fulvestrant],139.42%,18.21%,3.83,enzyme inhibited in OPCs as indicated by sterol profile (OPCs; 24 h): targeted CYP51
"Cl.O[Si](CCCN1CCCCC1)(c1ccc(F)cc1)C1CCCCC1 (stereo not drawn) [Hexahydro-sila-difenidol hydrochloride, p-fluoro analog]",–,26.76%,–,fold-change in % MBP + oligodendrocytes (EpiSC-derived OPCs [2]; [3]): 3.49
"Cl.Clc1ccc(N2CCN(Cc3c[nH]c4ncccc34)CC2)cc1 [L-745,870 hydrochloride]",–,32.61%,–,–
Cc1cc(Nc2cc(CN3CCOCC3)c3nc(C)c(Cc4ccc(Cl)cc4F)n3n2)n[nH]1 [LY2784544],87.93%,28.75%,3.62,–
"FC(F)(F)c1ccc(/C=C/c2nc(COc3ccc(CCCCn4ccnn4)cc3)co2)cc1 [Mubritinib (TAK 165), Mubritinib]",142.71%,31.45%,3.95,–
N=C(N)c1ccc(OCCCCCOc2ccc(C(=N)N)cc2)cc1 [Pentamidine isethionate],108.75%,41.29%,4.42,–
CCCCOc1ccc(OCCCN2CCOCC2)cc1 [Pramoxine HCl],113.08%,32.98%,3.89,–
O=C(C1CCCCC1)N1CC(=O)N2CCc3ccccc3C2C1 (stereo not drawn) [Praziquantel],109.81%,33.24%,3.72,–
CCc1nc(N)nc(N)c1-c1ccc(Cl)cc1 [Pyrimethamine],91.11%,43.87%,4.92,–
O=C(c1ccc(OCCN2CCCCC2)cc1)c1c(-c2ccc(O)cc2)sc2cc(O)ccc12 [Raloxifene HCl],–,–,4.8,"cell viability (% relative to DMS0) (EpiSC-derived OPCs [2]; 2 μM, HCl): 114.37%; cell viability (% relative to DMS0) (EpiSC-derived OPCs [2]; 2 μM, listed as Raloxifene hydrochloride, HCl): 126.07%"

Compound,cell viability (% relative to DMS0) (EpiSC-derived OPCs [2]; 2 μM),% 0ligos (EpiSC-derived OPCs [2]; 2 μM),fold induction at 2 µM (EpiSC-derived OPCs [2]; [3]),further results
"Cc1nnc(C(=O)NC(C)(C)c2nc(C(=O)NCc3ccc(F)cc3)c(O)c(=O)n2C)o1 [Raltegravir (MK-0518), Raltegravir]",115.85%,38.02%,–,fold induction at 2 µM (EpiSC-derived OPCs [2]): 4.26
Cc1cc(NC(=O)Nc2ccc(N(C)C)cc2)c2cc(F)cc(F)c2n1 [SB408124],106.19%,39.63%,–,fold-change in % MBP + oligodendrocytes (EpiSC-derived OPCs [2]; [3]): 4.44
Clc1ccc(C(Cn2ccnc2)OCc2csc3c(Cl)cccc23)c(Cl)c1 (stereo not drawn) [Sertaconazole nitrate],134.49%,39.38%,5.23,–
Clc1ccc(CSC(Cn2ccnc2)c2ccc(Cl)cc2Cl)cc1 (stereo not drawn) [Sulconazole Nitrate],104.84%,37.57%,4.44,–
CCN(CC)CCCCCCCCOC(=O)c1cc(OC)c(OC)c(OC)c1.Cl [TMB-8 hydrochloride],139.42%,18.47%,–,fold-change in % MBP + oligodendrocytes (EpiSC-derived OPCs [2]; [3]): 3.89
O=C1Cc2cc(CCN3CCN(c4nsc5ccccc45)CC3)c(Cl)cc2N1 [Ziprasidone HCl],–,–,4.68,"% 0ligos (EpiSC-derived OPCs [2]; 2 μM, HCl): 34.10%; cell viability (% relative to DMS0) (EpiSC-derived OPCs [2]; 2 μM, HCl): 147.64%"
O=C1Cc2cc(CCN3CCN(c4nsc5ccccc45)CC3)c(Cl)cc2N1 [Ziprasidone hydrochloride monohydrate],–,–,–,"% 0ligos (EpiSC-derived OPCs [2]; [4]): 32.78%; fold-change in % MBP + oligodendrocytes (EpiSC-derived OPCs [2]; 2 μM, relative to DMSO controls of the same plate, hydrochloride monohydrate): 3.71; cell viability (% relative to DMS0) (EpiSC-derived OPCs [2]; [4]): 116.11%"
"C=C(c1ccc(C(=O)O)cc1)c1cc2c(cc1C)C(C)(C)CCC2(C)C [bexarotene, Bexarotene]",–,–,–,sterol levels / sterol intermediate accumulation in OPCs (OPCs): minimal effects on sterol levels
"CC(C)CCC[C@@H](C)[C@H]1CC[C@H]2[C@@H]3CC=C4C[C@@H](O)CC[C@]4(C)[C@H]3CC[C@]12C [cholesterol, Cholesterol]",–,–,–,formation of MBP+ oligodendrocytes from OPCs (EpiSC-derived OPCs [1]): ineffective
"OC(Cn1cncn1)(Cn1cncn1)c1ccc(F)cc1F [fluconazole, Fluconazole]",–,–,–,inhibition of mammalian CYP51 in vitro (rat CYP51): did not inhibit mammalian CYP51 in vitro
"CC(C)=CCC[C@@H](C)[C@H]1CC[C@@]2(C)C3=C(CC[C@]12C)[C@@]1(C)CC[C@H](O)C(C)(C)[C@@H]1CC3 [lanosterol, Lanosterol]",–,–,–,formation of MBP+ oligodendrocytes from OPCs (EpiSC-derived OPCs [1]): enhanced formation of MBP+ oligodendrocytes in a dose-responsive fashion
"N[C@@H](Cc1cc(I)c(Oc2ccc(O)c(I)c2)c(I)c1)C(=O)O [liothyronine, Liothyronine]",–,–,–,sterol levels / sterol intermediate accumulation in OPCs (OPCs): minimal effects on sterol levels
"CC(C)CCC[C@@H](C)[C@H]1CC[C@H]2C3=C(CC[C@]12C)[C@@]1(C)CC[C@H](O)C[C@@H]1CC3 [zymostenol, Zymostenol]",–,–,–,formation of MBP+ oligodendrocytes from OPCs (EpiSC-derived OPCs [1]): enhanced the formation of MBP+ oligodendrocytes
(±)-Vesamicol,112.02%,34.23%,–,fold-change in % MBP + oligodendrocytes (EpiSC-derived OPCs [2]; [3]): 3.87
Varenicline tartrate,144.02%,22.86%,–,fold-change in % MBP + oligodendrocytes (EpiSC-derived OPCs [2]; [3]): 4.81
lsoconazole nitrate,–,53.25%,–,fold-change in % MBP + oligodendrocytes (EpiSC-derived OPCs [2]; [3]): 6.70
